# Data published in patent US10633389B2, “CARM1 inhibitors and uses thereof” (Epizyme, Inc., priority 2013, dated 2020).
# System: asymmetric di-methyl PABP1 in RKO cells
# Experiment: RKO methylation assay, In Cell Western (ICW) for asymmetric di-methyl PABP1
# Format: cell-based
# Conditions: Homo sapiens, RKO, Cellular potencies, ICW PABP1me2a
# In short: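 RKO cells treated with compound for 48 h at 37 °C, then fixed, permeabilized and immunostained for asymmetric di-methyl PABP1, with DRAQ5 as DNA stain. Infrared 700/800 nm signal ratio normalized to DMSO and 20 μM reference-compound controls; IC50 from triplicate wells.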
row,IC50 [µM],Compound
1,< 5,CNC[C@@H](O)COc1ccc(F)c(-c2nc(-c3c(C)noc3C)c(C)c(N3Cc4nccnc4C3)n2)c1 [Example 226-3]
2,< 5,CCOC(=O)N1CCCCC1CNc1nc(-c2cc(OC[C@H](O)CNC)ccc2Cl)nc(-c2c(C)noc2C)c1C (stereo partly shown) [Example 28-3]
3,< 5,CNC[C@@H](O)COc1ccc(Cl)c(-c2nc(-c3c(C)noc3C)c(C)c(C3CCOCC3)n2)c1 [Example 268-3]
4,< 5,CCO[C@@H]1CCC[C@H]1Nc1nc(-c2cc(OC[C@H](O)CNC)ccc2F)nc(-c2c(C)noc2C)c1C [Example 191-3]
5,< 5,CNC[C@@H](O)COc1ccc(Cl)c(-c2nc(-c3cnn(C)c3)c(C)c(-c3c(C)noc3C)n2)c1 [Example 239-3]
6,< 5,CNC[C@@H](O)COc1ccc(Cl)c(-c2nc(-c3c(C)noc3C)c(C)c(N3CC4(CCN(C(=O)OC(C)C)C4)C3)n2)c1 [Example 286-3]
7,10 to 20,CNCC(O)COc1cccc(-c2nc(NC3CCOCC3)c(C)c(-c3c(C)noc3CO)n2)c1 (stereo not shown) [Example 145-3]
8,< 5,CCOC(=O)N1CCOC[C@H]1CNc1nc(-c2cc(OC[C@H](O)CNC)ccc2F)nc(-c2c(C)noc2C)c1C [Example 60-3]
9,< 5,CNC[C@@H](O)COc1ccc(Cl)c(-c2nc(-c3c(C)noc3C)c(C)c(N3Cc4cc(OC)cnc4C3)n2)c1 [Example 232-3]
10,< 5,CNC[C@@H](O)COc1ccc(Cl)c(-c2nc(N[C@@H]3CCO[C@H](C)C3)c(C)c(-c3c(C)noc3C)n2)c1 [Example 132-3]
11,< 5,CNC[C@H](O)COc1ccc(Cl)c(-c2nc(N[C@H]3CCN(C(=O)OC)C[C@H]3F)c(C)c(-c3c(C)noc3C)n2)c1 [Example 65-3]
12,< 5,CNC[C@H](O)COc1ccc(Cl)c(-c2nc(N[C@@H]3CCN(C(=O)OC)[C@@H](C)C3)c(C)c(-c3c(C)noc3C)n2)c1 [Example 66-3]
13,< 5,CNC[C@@H](O)COc1ccc(Cl)c(-c2nc(-c3c(C)noc3C)c(C)c(N3Cc4cnn(C)c4C3)n2)c1 [Example 140-3]
14,< 5,CCOC(=O)N1CC[C@@H](Nc2nc(-c3cc(OC[C@H](O)CNC)ccc3Cl)nc(-c3c(C)noc3C)c2C)C1 [Example 112-3]
15,< 5,CCOC(=O)N1CCOC[C@@H]1CNc1nc(-c2cc(OC[C@H](O)CNC)ccc2Cl)nc(-c2c(C)noc2C)c1Cl [Example 56-3]
16,< 5,CNC[C@@H](O)COc1ccc(F)c(-c2nc(-c3c(C)noc3C)c(C)c(N3CC4(CCOCC4)C3)n2)c1 [Example 227-3]
17,< 5,CNC[C@@H](O)COc1ccc(Cl)c(-c2nc(-c3c(C)noc3C)c(C)c(N3CCC3C)n2)c1 (stereo partly shown) [Example 207-3]
18,< 5,CNC[C@@H](O)COc1ccc(Cl)c(-c2nc(N[C@H]3CN(C(=O)OC)C[C@@H]3F)c(C)c(-c3c(C)noc3C)n2)c1 [Example 202-3]
19,< 5,CNC[C@@H](O)COc1ccc(Cl)c(-c2nc(-c3c(C)noc3C)c(C)c(N3C[C@H]4COC[C@H]4C3)n2)c1 [Example 186-3]
20,10 to 20,CNCC(O)COc1cccc(-c2nc(-c3c(C)noc3C)cc(N(CCOC)CCOC)n2)c1 (stereo not shown) [Example 52-1]
21,< 5,CNC[C@H](O)COc1ccc(Cl)c(-c2nc(-c3c(C)noc3C)c(C)c(N3Cc4cc(F)cnc4C3)n2)c1 [Example 86-3]
22,< 5,CNC[C@@H](O)COc1ccc(F)c(-c2nc(-c3c(C)noc3C)c(C)c(N3Cc4cnn(C)c4C3)n2)c1 [Example 223-3]
23,< 5,CNCC(O)COc1cccc(-c2nc(NC3CCOCC3)cc(-c3c(C)noc3C)n2)c1 (stereo not shown) [Example 33-1]
24,< 5,CNC[C@@H](O)COc1ccc(Cl)c(-c2nc(N[C@H]3CCN(C4CC4)C[C@H]3F)c(C)c(-c3c(C)noc3C)n2)c1 [Example 44-3]
25,< 5,CNC[C@@H](O)COc1ccc(Cl)c(-c2nc(NC3CC4(C3)CN(C(=O)OC)C4)c(C)c(-c3c(C)noc3C)n2)c1 [Example 146-3]
26,< 5,CNC[C@@H](O)COc1ccc(Cl)c(-c2nc(N[C@@H]3CCO[C@@H](C)C3)c(C)c(-c3c(C)noc3C)n2)c1 [Example 257-3]

# The remaining lines, values behind:
row,Compound,IC50 [µM]
1,CNC[C@@H](O)COc1cccc(-c2nc(NC3CCOCC3)c(C)c(-c3c(C)noc3C)n2)c1 [Example 56-1a],< 5
2,CCS(=O)(=O)N1CCN(c2nc(-c3cccc(OCC(O)CNC)c3)nc(NC3CCOC3)c2C)CC1(C)C (stereo not shown) [Example 448-1a],< 5
3,CC[C@H]1CN(c2nc(-c3cccc(OCC(O)CNC)c3)nc(-c3c(C)noc3C)c2C)CCN1S(C)(=O)=O (stereo partly shown) [Example 155-1a],< 5
4,CNCC(O)COc1cccc(-c2nc(-c3cnc4cnccn34)cc(N(C)C3CCOCC3)n2)c1 (stereo not shown) [Example 490-1a],< 5
5,CNCC(O)COc1cccc(-c2nc(NCC3CCN(C(=O)N(C)C)CC3)c(C)c(-c3c(C)noc3C)n2)c1 (stereo not shown) [Example 248-1a],< 5
6,CNC[C@@H](O)COc1cccc(-c2nc(-c3cnc4cnccn34)cc(N(C)C3CCOCC3)n2)c1 [Example 507-1a],< 5
7,CNCC(O)COc1cccc(-c2nc(N[C@H]3CCOC3)c(C)c(N3CCOCC3)n2)c1 (stereo partly shown) [Example 26-1],10 to 20
8,CNCC(O)COc1cccc(-c2nc(Nc3nnc(C4CC4)s3)c(C)c(-c3c(C)noc3C)n2)c1 (stereo not shown) [Example 217-1a],< 5
9,CNCC(O)COc1cccc(-c2nc(-c3c(C)noc3C)c(C)c(N3CCO[C@H](CNC)C3)n2)c1 (stereo partly shown) [Example 124-1a],5 to 10
10,CNCC(O)COc1cccc(-c2nc(N[C@@H]3CCOC3)c(C)c(-c3cnc4[nH]ccc4c3)n2)c1 (stereo partly shown) [Example 355-1a],10 to 20
11,CNCC(O)COc1cccc(-c2nc(-c3c(C)noc3C)cc(N3CCN(C)[C@H](C)C3)n2)c1 (stereo partly shown) [Example 175-1a],5 to 10
12,CNCC(O)COc1cccc(-c2nc(N[C@H]3C[C@H](O)C3)cc(-c3c(C)noc3C)n2)c1 (stereo partly shown) [Example 43-1a],10 to 20
13,CNCC(O)COc1cccc(-c2nc(-c3c(C)noc3C)cc(N3CCN(C(C)=O)C4(CC4)C3)n2)c1 (stereo not shown) [Example 70-1a],< 5
14,CNCC(O)COc1cccc(-c2nc(-c3cn(S(C)(=O)=O)c4ncncc34)cc(N(C)C3CCOCC3)n2)c1 (stereo not shown) [Example 483-1a],< 5
15,CNCC(O)COc1cccc(-c2nc(-c3c(C)noc3C)cc(N3CCN(CC(F)(F)F)[C@H](C)C3)n2)c1 (stereo partly shown) [Example 144-1a],< 5
16,CNCC(O)COc1cccc(-c2nc(-c3cnn(CC(C)C)c3)cc(N(C)C3CCOCC3)n2)c1 (stereo not shown) [Example 516-1a],5 to 10
17,CCOC(=O)N1CCCCC1CNc1nc(-c2cc(OC[C@@H](O)CNC)ccc2Cl)nc(-c2c(C)noc2C)c1C (stereo partly shown) [Example 27-3],< 5
18,CNCC(O)COc1cccc(-c2nc(-c3c(C)noc3C)cc(N3CCN(C(=O)N(C)C)CC3)n2)c1 (stereo not shown) [Example 120-1a],< 5
19,CNCC(O)COc1cccc(-c2nc(N3CCN(C)CC3)cc(N(C)C3CCOCC3)n2)c1 (stereo not shown) [Example 531-1a],5 to 10
20,CNCC(O)COc1cccc(-c2nc(NC3CCOCC3)c(C)c(-c3c(C)noc3C)n2)c1 (stereo not shown) [Example 6-1a],< 5
21,CNCC(O)COc1cccc(-c2nc(NC3CCN(C4COC4)C3)c(C)c(-c3c(C)noc3C)n2)c1 (stereo not shown) [Example 240-1a],< 5

row,Compound,IC50 [µM]
1,CNCC(O)COc1cccc(-c2nc(N[C@H]3CC[C@H](O)CC3)cc(-c3c(C)noc3C)n2)c1 (stereo partly shown) [Example 32-1a],10 to 20
2,CNCC(O)COc1cccc(-c2nc(N[C@@H]3CCOC3)c(C)c(N3CCS(=O)(=O)CC3)n2)c1 (stereo partly shown) [Example 425-1a],10 to 20
3,CNCC(O)COc1cc(O)cc(-c2nc(NC3CCOCC3)c(C)c(-c3c(C)noc3C)n2)c1 (stereo not shown) [Example 76-1a],10 to 20
4,CCOC(=O)N1CCC(CNc2nc(-c3cccc(OCC(O)CNC)c3)nc(-c3c(C)noc3C)c2C)CC1 (stereo not shown) [Example 191-1a],< 5
5,CNCC(O)COc1cc(Cl)cc(-c2nc(-c3ccncc3)c(C3CC3)c(N(C)C3CCOCC3)n2)c1 (stereo not shown) [Example 574-1a],10 to 20
6,CNCC(O)COc1cccc(-c2nc(N[C@@H]3CCC[C@@H]3O)c(C)c(-c3c(C)noc3C)n2)c1 (stereo partly shown) [Example 250-1a],< 5
7,CNCC(O)COc1cccc(-c2nc(NC3C[C@H]4CC[C@@H](C3)N4C(=O)OC)c(C)c(-c3c(C)noc3C)n2)c1 (stereo partly shown) [Example 242-1a],< 5
8,CNCC(O)COc1cccc(-c2nc(NC3CCOCC3C)c(C)c(-c3c(C)noc3C)n2)c1 (stereo not shown) [Example 269-1a],< 5
9,CCS(=O)(=O)N1CCC(CNc2nc(-c3cccc(OCC(O)CNC)c3)nc(-c3c(C)noc3C)c2C)CC1 (stereo not shown) [Example 192-1a],< 5
10,CNCC(O)COc1cccc(-c2nc(N[C@@H]3CCOC3)c(C)c(N3CC[C@@H](N(C)C)C3)n2)c1 (stereo partly shown) [Example 392-1a],5 to 10
11,CNCC(O)COc1cccc(-c2nc(NC3CCCN(CC(F)F)C3)c(C)c(-c3c(C)noc3C)n2)c1 (stereo not shown) [Example 203-1a],< 5
12,CNCC(O)COc1cccc(-c2nc(-c3c(C)noc3C)cc(N(C)c3cncnc3)n2)c1 (stereo not shown) [Example 50-1a],< 5
13,CNC[C@@H](O)COc1cccc(-c2nc(-c3cn(S(C)(=O)=O)c4ncncc34)c(C)c(N(C)C3CCOCC3)n2)c1 [Example 488-1a],< 5
14,CNCC(O)COc1cccc(-c2nc(N[C@@H]3CCOC3)c(C)c(N3Cc4nc(C)sc4C3)n2)c1 (stereo partly shown) [Example 465-1a],< 5
15,CNCC(O)COc1cccc(-c2nc(-c3c(C)noc3C)cc(N3CCN(C)CC3)n2)c1 (stereo not shown) [Example 19-1a],10 to 20
16,CNCC(O)COc1cccc(-c2nc(-c3cccc4ncccc34)cc(N(C)C3CCOCC3)n2)c1 (stereo not shown) [Example 616-1a],10 to 20
17,CNCC(O)COc1cccc(-c2nc(NC3(C)CCOCC3)c(F)c(-c3c(C)noc3C)n2)c1 (stereo not shown) [Example 159-1a],10 to 20
18,CNC[C@@H](O)COc1cccc(-c2nc(-c3c[nH]c4ncncc34)cc(N(C)C3CCOCC3)n2)c1 [Example 571-1a],10 to 20
19,CNCC(O)COc1cccc(-c2nc(N[C@H]3C[C@@H](O)C3)c(C)c(-c3c(C)noc3C)n2)c1 (stereo partly shown) [Example 256-1a],< 5
20,CNCC(O)COc1cc(Cl)cc(-c2nc(-c3cnc4ccccc4n3)c(C)c(N(C)C3CCOCC3)n2)c1 (stereo not shown) [Example 612-1a],10 to 20
